Experimental data published in US20050047997A1, “Method for the evaluation of the efficiency of a therapeutic action upon the human organism” (priority 1997, published 2005).

How the values were obtained:
Assay type in all cases: in vivo, human
arterial pressure = assay: Arterial pressure monitoring in hypertension patients; details: monitored every other day
Protocol: (§1) Selected hypertension patients are divided into two groups. The reference group includes 48 patients and the experimental group includes 56 patients. Each group consists of 60% of females, the rest being males. All the patients in the same group differ in age by not more than 1 year. The patients from the experimental group are treated with a hypotensive medication belonging to calcium current blocking agents—Corinfar, (see […], lines from 1 to 3), while those from the reference group are treated with a medication that blocks angiotensin-transforming enzyme (ATE) Prestarium (see FIG. 3, lines from 4 to 6). The period from the beginning of the relapse till the inclusion of the patient into the experiment is chosen to be 2 days. The phase of the disease is selected to be hypertension of medium exacerbation. The prevailing disease localization is its cerebral variant, in other words, the variant characterized by prevailing damage of cerebral vessels. The initial level of the homeostasis characteristics is set by the characteristic of electrolytic homeostasis, i.e. the sodium level, and is equal to 140 mmol/l for both groups. The patients' arterial pressure was monitored every other day, which corresponded to the period of time that is characterized by a significant decrease in arterial pressure under the effect of ATE blocking agent. […]

[1] = Electrolytic homeostasis (sodium level) in treated hypertension patients; details: initial level 140 mmol/l
Protocol: as §1

[2] = Homeostasis (lipid metabolism) indicators in treated ulcer patients
Protocol: As a result, each group consists of patients of the same sex or features the same proportion of males and females who differ in age by not more than one year. […] Thus, patients with the stomach ulcer are ranked by the ulcerous defect localization with the accuracy of 1/9th of the stomach sections: cardia, subcardia, upper, middle and lower thirds of the stomach body, angle, anthral and prepyloric sections, pylorus. The initial surface area of the ulcerous defect is measured. Then the current stage (phase) of the disease: acute stage (the stage of ulcer forming), stationary stage or “plateau” and the stage of reparation proper (see FIG. 4) is determined for each patient on the basis of clinical, laboratory and instrumental indications. These phases characterize the period of time that passed since the beginning of relapse (exacerbation or start) of the disease till the patient was included into the clinical experiment. The method in question uses homeostasis indications, particularly those related to lipid metabolism, for the evaluation of the efficiency of the therapeutic action. Based on the above principle, the patients are divided into subgroups according to the following classification: • cholesterol (CS); • high density lipoproteins (HDLP); • low density lipoproteins (LDLP); • very low density lipoproteins (VLDLP); • triglycerides (TG); • atherogenicity factor (AF).
The quantitative number of patients in groups must provide the statistical reliability of the results. In the given example the group treated with a reference medical preparation consisted of 73 patients, while the group treated with the medical preparation that had to be evaluated consisted of 81 patients. The reference group was treated with a medication belonging to proton pump blocking agent (for example, Zerocid), while the experimental group was treated with a medication belonging to antacids (for example, Maalox). If the studied medications are only to be ranked by the efficiency of their action upon the organism rather than compared with each other, placebo can be used as a reference medication. The control time is determined for the selected groups of ulcer patients. The control is performed individually for each ranked experimental group. […]
The initial efficiency criterion was a complete healing of ulcerous defect combined with the dynamics of the change in homeostasis characteristics. The individual temporal norm was represented by a time interval calculated on the basis of individual characteristics of the ulcer healing process that corresponded to the individual characteristics of the homeostasis indications, for instance, to the characteristics of lipid metabolism calculated by the known formulas. […]

ulcerous defect = assay: Ulcer healing (cicatrization of ulcerous defect) in ulcer patients; details: compared with the other group
Protocol: As a result, each group consists of patients of the same sex or features the same proportion of males and females who differ in age by not more than one year. […] Thus, patients with the stomach ulcer are ranked by the ulcerous defect localization with the accuracy of 1/9th of the stomach sections: cardia, subcardia, upper, middle and lower thirds of the stomach body, angle, anthral and prepyloric sections, pylorus. The initial surface area of the ulcerous defect is measured. Then the current stage (phase) of the disease: acute stage (the stage of ulcer forming), stationary stage or “plateau” and the stage of reparation proper (see FIG. 4) is determined for each patient on the basis of clinical, laboratory and instrumental indications. These phases characterize the period of time that passed since the beginning of relapse (exacerbation or start) of the disease till the patient was included into the clinical experiment. […]
The quantitative number of patients in groups must provide the statistical reliability of the results. In the given example the group treated with a reference medical preparation consisted of 73 patients, while the group treated with the medical preparation that had to be evaluated consisted of 81 patients. […] The control time is determined for the selected groups of ulcer patients. […]

Row | Compound | arterial pressure change as a result of treatment (arterial pressure) | level of sodium after treatment [1] | effect upon the atherogenesis and oncogenesis judged from lipid spectrum indications [2] | HDLP indicators ([2]; FIG. 2a, lines 1-16) | atherogenicity factor (AF) ([2]; during treatment) | level of triglycerides (TG) ([2]; during treatment) | cicatrization of ulcerous defects (ulcerous defect)
1 | COC(=O)C1=C(C)NC(C)=C(C(=O)OC)C1c1ccccc1[N+](=O)[O-] [Corinfar] | decreased by comparable values | 146000 µM | – | – | – | – | –
2 | CCC[C@H](N[C@@H](C)C(=O)N1[C@H](C(=O)O)C[C@@H]2CCCC[C@@H]21)C(=O)OCC [Prestarium] | decreased by comparable values | 137000 µM | – | – | – | – | –
3 | COc1ccc2[nH]c([S+]([O-])Cc3ncc(C)c(OC)c3C)nc2c1 (stereo not drawn) [Zerocid] | – | – | clearly negative effect | decreasing | increasing | increasing | faster
